Results as given in the supplement of paper PMC11061612.

Tests used:
[1] = test system: VMRC-LCD (Lung Adenocarcinoma); assay: combination Emax (second highest fraction inhibited in the dose matrix, 72 h); higher = more inhibition; extreme values may be limits of the assay
Summary of the method: (§1)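 Bliss excess equals the observed combination effect minus the expected value EA + EB − EA·EB, where EA and EB are the effects of each agent alone. Combination Emax is the second-highest inhibition within the matrix. Inhibition was scaled from CellTiter-Glo 2.0 luminescence, with 0 set by vehicle wells and 1 by blank wells, after 72 hours of two-drug dosing of cells plated in 1536-well plates.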

[2] = test system: HuP-T3 (Pancreatic Carcinoma); assay: as above
Summary of the method: as §1

[3] = test system: KYSE-50 (Esophageal Squamous Cell Carcinoma); assay: as above
Summary of the method: as §1

[4] = test system: IMR-5 (Neuroblastoma); assay: as above
Summary of the method: as §1

[5] = test system: H-EMC-SS (Chondrosarcoma); assay: as above
Summary of the method: as §1

[6] = test system: GI-1 (Glioblastoma); assay: as above
Summary of the method: as §1

[7] = test system: KLE (Endometrial Carcinoma); assay: as above
Summary of the method: as §1

[8] = test system: KP-2 (Pancreatic Carcinoma); assay: as above
Summary of the method: as §1

[9] = test system: OCUM-1 (Gastric Carcinoma); assay: as above
Summary of the method: as §1

[10] = test system: PF-382 (T-Lymphoblastic Leukemia); assay: as above
Summary of the method: as §1

[11] = test system: EBC-1 (Squamous Cell Lung Carcinoma); assay: as above
Summary of the method: as §1

[12] = test system: EW-13 (Ewing's Sarcoma); assay: as above
Summary of the method: as §1

[13] = test system: LC4-1 (B-Lymphoblastic Leukemia); assay: Bliss excess, mean over the matrix (fraction); higher = more synergy
Summary of the method: as §1

[14] = test system: GI-1 (Glioblastoma); assay: as above
Summary of the method: as §1

[15] = test system: NB7 (Neuroblastoma); assay: as above
Summary of the method: as §1

[16] = test system: ASH-3 (Thyroid Gland Carcinoma); assay: as above
Summary of the method: as §1

[17] = test system: EW-13 (Ewing's Sarcoma); assay: as above
Summary of the method: as §1

[18] = test system: NCI-N87 (Gastric Carcinoma); assay: as above
Summary of the method: as §1

Structure (SMILES)	combination Emax [1]	combination Emax [2]	combination Emax [3]	combination Emax [4]	combination Emax [5]	combination Emax [6]	combination Emax [7]	combination Emax [8]	combination Emax [9]	combination Emax [10]	combination Emax [11]	combination Emax [12]	Bliss excess [13]	Bliss excess [14]	Bliss excess [15]	Bliss excess [16]	Bliss excess [17]	Bliss excess [18]
C=CCn1c(=O)c2cnc(Nc3ccc(N4CCN(C)CC4)cc3)nc2n1-c1cccc(C(C)(C)O)n1 [AZD1775] + C[C@@H]1COCCN1C2=NC(=NC(=C2)C3(CC3)[S@](=N)(=O)C)C4=C5C=CNC5=NC=C4 [AZD6738] (first compound max 1 µM, partner max 10 µM)	0.733	0.705	0.694	0.986	0.606	0.984	0.59	0.297	0.816	0.966	0.616	0.653	-0.0011	0.0753	-0.025	0.0987	0.0217	-0.0824
COc1cc2c(cc1OCCCCCOc1cc3c(cc1OC)C(=O)N1C=C(C)C[C@H]1C=N3)N=C[C@@H]1CC(C)=CN1C2=O [SG3199] + O=C(c1cc(Cc2n[nH]c(=O)c3ccccc23)ccc1F)N1CCN(C(=O)C2CC2)CC1 [Olaparib] (first compound max 0.001 µM, 7x7, partner max 10 µM)	0.0613	0.112	0.0539	0.543	0.0837	0.175	0.184	0.13	0.122	0.259	0.183	0.584	-0.0371	-0.0178	-0.0474	-0.0232	-0.0415	-0.0477
C=CCn1c(=O)c2cnc(Nc3ccc(N4CCN(C)CC4)cc3)nc2n1-c1cccc(C(C)(C)O)n1 [AZD1775] + O=C(c1cc(Cc2n[nH]c(=O)c3ccccc23)ccc1F)N1CCN(C(=O)C2CC2)CC1 [Olaparib] (first compound max 1 µM, partner max 10 µM)	0.34	0.274	0.301	0.83	0.333	0.917	0.456	0.225	0.473	0.976	0.272	0.622	0.0226	0.0056	-0.0171	-0.0054	-0.0801	-0.046
Cc1cc2ncnn2cc1Nc1ncc2c(n1)n(C1CCOCC1)c(=O)n2C [AZD7648] + C[C@@H]1COCCN1C2=NC(=NC(=C2)C3(CC3)[S@](=N)(=O)C)C4=C5C=CNC5=NC=C4 [AZD6738] (first compound max 10 µM, 7x7, partner max 10 µM)	0.579	0.606	0.628	0.951	0.475	0.888	0.419	0.0981	0.719	0.858	0.293	0.564	0.0469	0.018	0.0143	0.0459	0.0039	0.024
COc1cccc(OCCCN)c1-c1cc(Nc2cnc(C#N)cn2)n[nH]1 [Prexasertib] + C[C@@H]1COCCN1C2=NC(=NC(=C2)C3(CC3)[S@](=N)(=O)C)C4=C5C=CNC5=NC=C4 [AZD6738] (first compound max 1 µM, 7x7, partner max 10 µM)	0.753	0.663	0.818	1	0.383	0.962	0.437	0.398	0.813	0.917	0.626	0.632	-0.0033	-0.0195	-0.0018	0.0902	0.0572	-0.0253
COc1cccc(OCCCN)c1-c1cc(Nc2cnc(C#N)cn2)n[nH]1 [Prexasertib] + Cc1cc2ncnn2cc1Nc1ncc2c(n1)n(C1CCOCC1)c(=O)n2C [AZD7648] (first compound max 1 µM, 7x7, partner max 10 µM)	0.749	0.716	0.818	0.98	0.458	0.987	0.471	0.57	0.803	0.934	0.588	0.512	-0.0209	-0.019	-0.0195	0.0598	-0.015	-0.0119
COc1cccc2c1C(=O)c1c(O)c3c(c(O)c1C2=O)C[C@@](O)(C(=O)CO)C[C@@H]3O[C@H]1C[C@H](N)[C@H](O)[C@H](C)O1 [Doxorubicin] + Cc1cc2ncnn2cc1Nc1ncc2c(n1)n(C1CCOCC1)c(=O)n2C [AZD7648] (first compound max 1 µM, 7x7, partner max 10 µM)	0.612	0.606	0.678	1	0.957	0.929	0.6	0.513	0.596	0.989	0.496	0.745	0.111	0.107	0.0742	0.0829	0.0376	-0.0298
CCN(CCO)CCCOc1ccc2c(Nc3cc(CC(=O)Nc4cccc(F)c4)[nH]n3)ncnc2c1 [AZD2811] + O=C(c1cc(Cc2n[nH]c(=O)c3ccccc23)ccc1F)N1CCN(C(=O)C2CC2)CC1 [Olaparib] (first compound max 1 µM, 7x7, partner max 10 µM)	0.545	0.163	0.282	0.962	0.236	0.328	0.16	0.0558	0.379	0.893	0.216	0.701	-0.0598	0.0685	0.0598	0.0118	-0.0532	0.0237
COc1cccc(OCCCN)c1-c1cc(Nc2cnc(C#N)cn2)n[nH]1 [Prexasertib] + C=CCn1c(=O)c2cnc(Nc3ccc(N4CCN(C)CC4)cc3)nc2n1-c1cccc(C(C)(C)O)n1 [AZD1775] (first compound max 1 µM, partner max 1 µM)	0.772	0.679	0.852	1	0.554	0.994	0.674	0.613	0.808	0.942	0.666	0.611	0.0128	0.05	0.0708	0.235	0.0788	-0.0324
Cc1cc2ncnn2cc1Nc1ncc2c(n1)n(C1CCOCC1)c(=O)n2C [AZD7648] + C=CCn1c(=O)c2cnc(Nc3ccc(N4CCN(C)CC4)cc3)nc2n1-c1cccc(C(C)(C)O)n1 [AZD1775] (first compound max 10 µM, partner max 1 µM)	0.425	0.283	0.431	0.781	0.53	0.86	0.508	0.187	0.384	0.957	0.209	0.332	-0.001	0.0071	-0.011	-0.0006	0.0225	-0.0342
CN(C)CCCOc1ccc(-c2ccc3ncc4c(c3c2)n(C2CCOCC2)c(=O)n4C)cn1 [AZD0156] + C[C@@H]1COCCN1C2=NC(=NC(=C2)C3(CC3)[S@](=N)(=O)C)C4=C5C=CNC5=NC=C4 [AZD6738] (first compound max 1 µM, 7x7, partner max 10 µM)	0.534	0.658	0.674	0.926	0.402	0.926	0.469	0.158	0.783	0.855	0.535	0.581	-0.0743	-0.0234	0.0348	0.0429	0.0006	-0.0286
C[C@@H]1COCCN1c1cc(C2([S@](C)(=N)=O)CC2)nc(-c2ccnc3[nH]ccc23)n1 [AZD6738] + O=C(c1cc(Cc2n[nH]c(=O)c3ccccc23)ccc1F)N1CCN(C(=O)C2CC2)CC1 [Olaparib] (first compound max 10 µM, 7x7, partner max 10 µM)	0.562	0.705	0.437	0.958	0.419	0.926	0.482	0.142	0.675	0.916	0.487	0.757	-0.009	0.0039	0.0202	0.0361	-0.0574	0.0043
CCN(CCO)CCCOc1ccc2c(Nc3cc(CC(=O)Nc4cccc(F)c4)[nH]n3)ncnc2c1 [AZD2811] + C=CCn1c(=O)c2cnc(Nc3ccc(N4CCN(C)CC4)cc3)nc2n1-c1cccc(C(C)(C)O)n1 [AZD1775] (first compound max 1 µM, partner max 1 µM)	0.553	0.197	0.301	0.998	0.257	0.947	0.564	0.206	0.482	0.978	0.24	0.355	-0.109	0.0285	0.0497	-0.016	0.0393	-0.0657
Cc1cc2ncnn2cc1Nc1ncc2c(n1)n(C1CCOCC1)c(=O)n2C [AZD7648] + CCN(CCO)CCCOc1ccc2c(Nc3cc(CC(=O)Nc4cccc(F)c4)[nH]n3)ncnc2c1 [AZD2811] (first compound max 10 µM, 7x7, partner max 1 µM)	0.619	0.161	0.341	0.98	0.545	0.425	0.382	0.0095	0.369	0.851	0.18	0.291	-0.114	0.043	0.0415	0.0309	0.0259	0.0081
